These results are taken from US7776844B2, “N-(phosphonoalkyl)-amino acids, derivatives thereof and compositions and methods of use” (priority 2006, dated 2010).

Like-named read-outs stand apart in the source and are kept apart here.

Assay [1] deals with X-linked ichthyosis with severe dry skin. The assay is described as follows: Topical treatment of X-linked ichthyosis / severe dry skin, clinical evaluation. As to conditions: Homo sapiens, read-out: improvement in contrast to untreated or vehicle control, clinical evaluation. It counts as in vivo. The text has this: For example, human subjects having severe dry skin or ichthyosis, topically applied 1%-5% N-(phosphonomethyl)-glycine creams to lesions for 2 to 3 weeks. After 2 to 3 weeks of topical application, the thick and scaly skin disappeared and the skin became smooth and normal in appearance. Clinical evaluation was judged to be 90% to 100% improvement compared to the untreated condition or when using a vehicle control.
(§1) The present invention will now be described in more detail with reference to the following non-limiting examples. In the initial tests for comparative studies, a control vehicle was always included. It was discovered that all the vehicle controls gave the same results as that of the untreated skin sites; no detectable effects of the controls have been found as judged by clinical evaluation.
(§2) For subjective disorders such as pain, itch or the like, the therapeutic effects were evaluated or judged by the subjects or patients; for example, if the pain or itch had disappeared within hours or days. For other detectable symptoms or syndromes, the therapeutic effects or improvements were evaluated or judged by medical professionals.
N-(phosphonomethyl)-glycine (5 g) was suspended in water (30 ml) and propylene glycol (10 ml), and concentrated ammonium hydroxide (2 ml) was added with stirring. The suspension became a clear solution, and was mixed with hydrophilic ointment (oil-in-water emulsion, 53 g). The white cream thus formulated had pH 3.8 and contained 5% N-(phosphonomethyl)-glycine. A subject who had X-linked ichthyosis with severe dry skin, having thick and rough skin with adherent scales, topically applied the above 5% N-(phosphonomethyl)-glycine cream to an involved skin site twice daily for two weeks. After one week of topical application, the adherent scales disappeared, and the skin became smooth and had 50% improvement in contrast to the untreated or vehicle control as judged by clinical evaluation. After two weeks of topical application, the treated skin became normal in appearance, and had 100% improvement in contrast to the untreated or vehicle control as judged by clinical evaluation.
A subject who had X-linked ichthyosis with severe dry skin, having thick and rough skin with adherent scales, topically applied the above 5% N-(phosphonomethyl)imino-diacetic acid cream to an involved skin site twice daily for two weeks. After one week of topical application, most adherent scales disappeared and the skin had 50% improvement in contrast to the untreated or vehicle control as judged by clinical evaluation. After two weeks of topical application, the scales disappeared completely and the treated skin became smooth, and had 90% improvement in contrast to the untreated or vehicle control as judged by clinical evaluation.
A subject who had X-linked ichthyosis with severe dry skin, having thick and rough skin with adherent scales, topically applied the above 5% N-(phosphonomethyl)-L-tyrosine cream to an involved skin site twice daily for 12 days. After 12 days of topical application, most adherent scales disappeared and the skin became smooth, and had 75% improvement in contrast to the untreated or vehicle control as judged by clinical evaluation.
A subject who had X-linked ichthyosis having thick and rough skin with adherent scales, topically applied the 5% N-(phosphonomethyl)-DL-asparagine cream to an involved skin site twice daily for three weeks. After one week of topical application, most adherent scales disappeared and the treated site appeared smooth. The skin had 75% improvement in contrast to the untreated or vehicle control as judged by clinical evaluation. After three weeks of topical application, the scales disappeared completely and the treated site felt smooth and normal in appearance. The skin had 100% improvement in contrast to the untreated or vehicle control as judged by clinical evaluation. […]

In assay [2] the test system is chronic plaque psoriasis. The assay is described as follows: Topical treatment of chronic plaque psoriasis lesion, clinical evaluation. It counts as in vivo. As to conditions: Homo sapiens, read-out: improvement in contrast to untreated or vehicle control, clinical evaluation. On the procedure: as §1, §2
A subject had chronic plaque psoriasis with erythema, moderately thick and silvery scales. The subject topically applied twice daily the above white cream containing 5% N-(phosphonomethyl)-glycine ethyl ester to one psoriatic lesion for two weeks. At the end of two weeks, the erythema and silvery scales improved substantially, and the treated skin had 50% improvement in contrast to the untreated or vehicle control as judged by clinical evaluation.
A subject had chronic plaque psoriasis with erythema, moderately thick and silvery scales. The subject topically applied twice daily the above white cream containing 10% N-(phosphonomethyl)-L-proline to one psoriatic lesion for two weeks. At the end of two weeks, the erythema and silvery scales improved very substantially, and the treated skin had 75% improvement in contrast to the untreated or vehicle control as judged by clinical evaluation.
A subject had chronic plaque psoriasis with erythema, moderately thick and silvery scales. The subject topically applied twice daily the above white cream containing 5% N-(phosphonomethyl)-glycine propyl ester to one psoriatic lesion for two weeks. At the end of two weeks, the erythema and silvery scales improved very substantially, and the treated skin had 75% improvement in contrast to the untreated or vehicle control as judged by clinical evaluation.
A subject had chronic plaque psoriasis with erythema, moderately thick and silvery scales. The subject topically applied twice daily the above white cream containing 5% N-(phosphonomethyl)-glycine isopropyl ester to one psoriatic lesion for a week. At the end of one week, the erythema and silvery scales improved substantially, and the treated skin had 50% improvement in contrast to the untreated or vehicle control as judged by clinical evaluation.
A subject had chronic plaque psoriasis with erythema, moderately thick and silvery scales. The subject topically applied twice daily the above white cream containing 8% N-(phosphonomethyl)-glycinamide to one psoriatic lesion for three weeks. At the end of three weeks, the erythema and silvery scales disappeared almost completely, and the treated skin had 90% improvement in contrast to the untreated or vehicle control as judged by clinical evaluation.
A subject had chronic plaque psoriasis with erythema, moderately thick and silvery scales. The subject topically applied twice daily the above white cream containing 5% N-(phosphonomethyl)-L-tyrosine ethyl ester to one psoriatic lesion for two weeks. At the end of two weeks, the erythema and silvery scales improved noticeably and the treated skin had 25% improvement in contrast to the untreated or vehicle control as judged by clinical evaluation.
A subject had chronic plaque psoriasis with erythema, moderately thick and silvery scales. The subject topically applied twice daily the above white cream containing 10% N-(phosphonomethyl)-D-4-hydroxyphenylglycine to one psoriatic lesion for two weeks. […]

Assay [3] concerns hyperpigmented dark skin. The assay is described as follows: Topical skin lightening of hyperpigmented dark skin, clinical evaluation. It is filed as in vivo, human. The method, then: as §1, §2
A subject who had hyperpigmented dark skin, topically applied 5% N-(phosphonomethyl)-DL-asparagine cream prepared according to Example 7 to an involved skin site twice daily for four weeks. […] The treated site was 25% lighter in skin color in contrast to the untreated or vehicle control as judged by clinical evaluation. After four weeks of topical application, the treated site had substantial reduction in skin pigmentation. The treated site was 50% lighter in contrast to the untreated or vehicle control in skin color as judged by clinical evaluation.
A subject who had hyperpigmented dark skin, topically applied the above 5% N-(phosphonomethyl)-DL-asparagine solution to an involved skin site once every other day with occlusion for ten days. […] The treated site was 25% lighter in skin color as judged by clinical evaluation. After ten days of topical application, the treated site had substantial reduction in skin pigmentation. The treated site was 50% lighter in skin color in contrast to the untreated or vehicle control as judged by clinical evaluation.
A subject who had hyperpigmented dark skin, topically applied the above 5% N-(phosphonomethyl)-creatine solution to an involved skin site once every other day with occlusion for two weeks. […] The treated site was 25% lighter in skin color in contrast to the untreated or vehicle control as judged by clinical evaluation. After two weeks of topical application, the treated site had very substantial reduction in skin pigmentation. The treated site was 75% lighter in skin color in contrast to the untreated or vehicle control as judged by clinical evaluation.
A subject who had hyperpigmented dark skin, topically applied the above 5% N-(phosphonomethyl)-glycinamide solution to an involved skin site once every other day with occlusion for two weeks. […] The treated site was 25% lighter in skin color in contrast to the untreated or vehicle control as judged by clinical evaluation. After two weeks of topical application, the treated site had substantial reduction in skin pigmentation. The treated site was 50% lighter in skin color in contrast to the untreated or vehicle control as judged by clinical evaluation.
A subject who had hyperpigmented dark skin, topically applied the above 5% N-(phosphonomethyl)-L-glutamine solution to an involved skin site once every other day with occlusion for two weeks. After two weeks of topical application, the treated site had substantial reduction in skin pigmentation. The treated site had 50% lighter in skin color in contrast to the untreated or vehicle control as judged by clinical evaluation.

The test system of assay [4] is itchy eczema. The assay is described as follows: Topical relief of itch in itchy eczema, judged by subject. It counts as in vivo, human. As to conditions: for therapeutic evaluation, effective for immediate relief of itch: single topical application. On the procedure: as §1, §2
A subject, having itchy eczema on their right thigh, topically applied the above 8% N-(phosphonomethyl)-L-proline ethyl ester cream. […] Therapeutic evaluation was judged to be 100% effective in contrast to the untreated or vehicle control for immediate relief of itch.
A subject, having itchy eczema on their left leg, topically applied 7% N-(phosphonomethyl)-creatine cream prepared according to Example 17. […] Therapeutic evaluation was judged to be 100% effective in contrast to the untreated or vehicle control for immediate relief of itch.
A subject, having itchy eczema on their left thigh, topically applied the above 10% N-(phosphonomethyl)-glutamine. […] Therapeutic evaluation was judged to be 100% effective in contrast to the untreated or vehicle control for immediate relief of itch.

Setting [5] is: 168 h, 5% cream twice daily, after one week.
The mark [6] stands for this setting: 336 h, 5% cream twice daily, end of two weeks.
The mark [7] stands for this setting: 5% solution once every other day with occlusion, after seven days.
Setting [8] is: 5% solution once every other day with occlusion, after two weeks.

On to `CCOC(=O)[C@H](Cc1ccc(O)cc1)NCP(=O)(O)O` [N-(phosphonomethyl)-L-tyrosine ethyl ester], for which the inhibition in vivo at 5 % in assay [1] (setting [5]) and in assay [2] (setting [6]) was 25% in each case.
`NC(=O)CC(NCP(=O)(O)O)C(=O)O` (racemic) [N-(phosphonomethyl)-DL-asparagine]: the results for the inhibition in vivo at 5 % in assay [1] (168 h) and in assay [1] (504 h) were 75% and 100%, respectively. Besides, the “treated site lighter in skin color, clinical evaluation” value (shortened to “treated site lighter in skin color”) was 50% in assay [3] (5% cream twice daily, after four weeks); 25% in assay [3] (5% cream twice daily, after two weeks); 25% in assay [3] (setting [7]); 50% in assay [3] (5% solution once every other day with occlusion, after ten days).
On to `CCCOC(=O)CNCP(=O)(O)O` [N-(phosphonomethyl)-glycine propyl ester], for which, in assay [2] (336 h), the inhibition in vivo at 5 % is 75%.
For `O=C(O)[C@H](NCP(=O)(O)O)c1ccc(O)cc1` [N-(phosphonomethyl)-D-4-hydroxyphenylglycine], the inhibition in vivo at 10 % in assay [2] (336 h, 10% cream twice daily, end of two weeks) was 70%.
As for `CCOC(=O)[C@@H]1CCCN1CP(=O)(O)O` [N-(phosphonomethyl)-L-proline ethyl ester], in assay [4] (8% cream), the “time the treated skin did not itch after application” value is 8 h; the “time until itch disappeared after topical application” value was “within a few minutes”; the “therapeutic evaluation, effective for immediate relief of itch” value worked out at 100%.
With `CCOC(=O)CNCP(=O)(O)O` [N-(phosphonomethyl)-glycine ethyl ester], in assay [2] (336 h), the inhibition in vivo at 5 % was determined as 50%.
For the compound `O=C(O)[C@@H]1CCCN1CP(=O)(O)O` [N-(phosphonomethyl)-L-proline], in assay [2] (336 h), the inhibition in vivo at 10 % is 75%.
Regarding `O=C(O)CC[C@H](NCP(=O)(O)O)C(=O)O` [N-(phosphonomethyl)-L-glutamic acid], the inhibition in vivo at 8 % in assay [2] (336 h, 8% cream twice daily, end of two weeks) was 50%.
For the compound `O=C(O)CN(CC(=O)O)CP(=O)(O)O` [N-(phosphonomethyl)imino-diacetic acid], the inhibition in vivo at 5 % was found to be 50% in assay [1] (168 h) and 90% in assay [1] (336 h).
`NC(=O)CC[C@H](NCP(=O)(O)O)C(=O)O` [N-(phosphonomethyl)-L-glutamine]: the inhibition in vivo at 5 % in assay [1] (336 h, 5% solution once every other day (occlusion not stated), after two weeks) is 75%. The inhibition in vivo at 5 % in assay [1] (504 h, 5% solution once every other day (occlusion not stated), after three weeks) was determined as 100%. In addition, in assay [4] (10% cream), the “time the treated skin did not itch after application” value was determined as 8 h; the “time until itch disappeared after topical application” value is on record as “within a few minutes”; the “therapeutic evaluation, effective for immediate relief of itch” value was 100%. Further, the “treated site lighter in skin color” value in assay [3] (setting [8]) was 50%.
As for `NCC(=O)NCP(=O)(O)O` [N-(phosphonomethyl)-glycinamide], the inhibition in vivo at 5 % stood at 75% in assay [1] (168 h) and 100% in assay [1] (504 h). The inhibition in vivo at 8 % in assay [2] (504 h) was 90%. The results for the “treated site lighter in skin color” value in assay [3] (setting [7]) and in assay [3] (setting [8]) were 25% and 50%, respectively.
Turning to `O=C(O)[C@H](Cc1ccc(O)cc1)NCP(=O)(O)O` [N-(phosphonomethyl)-L-tyrosine], the inhibition in vivo at 5 % in assay [1] (288 h, 5% cream twice daily, after 12 days) stood at 75%.
Take `O=C(O)CNCP(=O)(O)O` [N-(phosphonomethyl)-glycine]: the inhibition in vivo at 5 % came out at 50% in assay [1] (setting [5]) and 100% in assay [1] (336 h, 5% cream twice daily, after two weeks).
In the case of `CC(C)OC(=O)CNCP(=O)(O)O` [N-(phosphonomethyl)-glycine isopropyl ester], the inhibition in vivo at 5 % in assay [2] (168 h) came out at 50%.
For the compound `O=P(O)(O)CNCCc1ccc(O)cc1` [N-(phosphonomethyl)-tyramine], the inhibition in vivo at 5 % was 75% in assay [1] (168 h, 5% solution once every other day under occlusion, after one week) and 50% in assay [2] (setting [6]).
